According to patent US20100048727A1, “PERFLUOROKETONE COMPOUNDS AND USES THEREOF” (priority 2007, published 2010):

How the values were obtained:
GV sPLA2 = biological target: T1, GV sPLA2 (Homo sapiens, UniProt P39877); assay: GV sPLA2 activity assay (release of [14C]-palmitic acid from mixed micelles); type: biochemical; conditions: mean and standard error; for Average percent inhibition GV sPLA2: 0.091 mole fraction, n = 3
T1 sequence (P39877 21-138): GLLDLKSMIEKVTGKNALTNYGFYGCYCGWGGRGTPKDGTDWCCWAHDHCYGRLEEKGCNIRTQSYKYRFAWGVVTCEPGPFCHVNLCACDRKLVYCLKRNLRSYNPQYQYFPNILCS
Description: (§1) Inhibition of phospholipase A2 by perfluoroketone compounds. […] (2002) J. Med. Chem. 45: 2891-2893; Kokotos, G. et al. (2004). J. Med. Chem. 47: 3615-3628). The standard GVIA iPLA2 activity assay utilizes DPPC/Triton™ X-100 mixed micelles at a ratio of 1:4 as previously described (Stephens D. et al. (2006). J. Med. Chem., 49: 2821-2828). GV sPLA2 activity was measured in an assay similar to the assays for GIVA cPLA2 and GVIA iPLA2.

human GIVA cPLA2 = biological target: T2, human GIVA cPLA2 (Homo sapiens, UniProt P47712); assay: GIVA cPLA2 specific mixed micelle assay; type: biochemical; conditions: mean and standard error; for Average percent inhibition GIVA cPLA2: 0.091 mole fraction, n = 3
T2 sequence (P47712 1-749): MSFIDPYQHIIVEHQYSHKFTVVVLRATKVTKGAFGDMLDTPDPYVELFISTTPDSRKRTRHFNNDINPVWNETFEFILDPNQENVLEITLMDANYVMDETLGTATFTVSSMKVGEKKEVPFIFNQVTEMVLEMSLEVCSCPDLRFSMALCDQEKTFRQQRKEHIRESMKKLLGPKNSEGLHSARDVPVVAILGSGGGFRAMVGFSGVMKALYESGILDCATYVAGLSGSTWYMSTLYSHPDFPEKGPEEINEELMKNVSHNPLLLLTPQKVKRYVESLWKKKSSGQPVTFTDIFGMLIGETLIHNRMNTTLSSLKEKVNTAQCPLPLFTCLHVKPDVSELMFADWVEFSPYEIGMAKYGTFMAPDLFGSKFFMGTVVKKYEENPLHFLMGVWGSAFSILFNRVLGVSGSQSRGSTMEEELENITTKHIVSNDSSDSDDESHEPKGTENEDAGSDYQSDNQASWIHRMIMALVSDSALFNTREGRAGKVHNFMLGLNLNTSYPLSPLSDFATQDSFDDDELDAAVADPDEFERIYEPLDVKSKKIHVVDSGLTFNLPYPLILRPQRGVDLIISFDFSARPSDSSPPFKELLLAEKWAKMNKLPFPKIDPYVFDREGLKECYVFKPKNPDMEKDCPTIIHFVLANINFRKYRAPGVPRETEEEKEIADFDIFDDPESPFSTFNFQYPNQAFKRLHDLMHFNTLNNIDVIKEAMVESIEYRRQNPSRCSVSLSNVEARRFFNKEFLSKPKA
Description: as §1

GVIA iPLA2 = biological target: T3, GVIA iPLA2 (Homo sapiens, UniProt O60733); assay: standard GVIA iPLA2 activity assay (DPPC/Triton X-100 mixed micelles); type: biochemical; conditions: mean and standard error; for Average percent inhibition GVIA iPLA2: 0.091 mole fraction, n = 3; for inhibition at 0.091 mole fraction: n = 3, read-out: Average percent inhibition GVIA iPLA2
T3 sequence (O60733 1-806): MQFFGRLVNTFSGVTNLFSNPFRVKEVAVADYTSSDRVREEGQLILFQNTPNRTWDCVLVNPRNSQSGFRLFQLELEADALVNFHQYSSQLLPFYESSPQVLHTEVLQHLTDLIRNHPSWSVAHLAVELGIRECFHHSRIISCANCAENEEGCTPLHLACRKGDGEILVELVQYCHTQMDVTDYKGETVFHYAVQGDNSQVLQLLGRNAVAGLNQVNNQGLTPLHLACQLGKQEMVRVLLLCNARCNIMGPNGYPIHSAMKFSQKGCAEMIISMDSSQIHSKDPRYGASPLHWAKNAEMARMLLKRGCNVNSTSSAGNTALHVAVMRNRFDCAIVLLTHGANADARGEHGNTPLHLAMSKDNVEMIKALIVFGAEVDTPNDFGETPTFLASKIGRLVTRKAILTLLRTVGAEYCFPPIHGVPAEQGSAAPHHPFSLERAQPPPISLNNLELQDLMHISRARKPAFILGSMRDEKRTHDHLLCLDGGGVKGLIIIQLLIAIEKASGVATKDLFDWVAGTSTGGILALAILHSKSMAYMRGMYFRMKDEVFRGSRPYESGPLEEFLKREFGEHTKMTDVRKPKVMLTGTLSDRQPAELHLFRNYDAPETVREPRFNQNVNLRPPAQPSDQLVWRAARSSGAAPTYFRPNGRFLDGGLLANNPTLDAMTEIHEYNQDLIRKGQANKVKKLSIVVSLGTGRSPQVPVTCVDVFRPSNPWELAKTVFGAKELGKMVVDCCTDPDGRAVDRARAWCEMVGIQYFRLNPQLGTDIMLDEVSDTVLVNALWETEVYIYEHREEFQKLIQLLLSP
Description: as §1

EAE-induced SJL/J mice = assay: Clinical course of EAE in SJL/J mice treated with fluoroketone compounds; type: in vivo

SMILES	Average percent inhibition GV sPLA2 (GV sPLA2)	Average percent inhibition GIVA cPLA2 (human GIVA cPLA2)	Average percent inhibition GVIA iPLA2 (GVIA iPLA2)	melting point	inhibition at 0.091 mole fraction (GV sPLA2; n = 3, read-out: Average percent inhibition GV sPLA2)	inhibition at 0.091 mole fraction (human GIVA cPLA2; n = 3, read-out: Average percent inhibition GIVA cPLA2)	inhibition at 0.091 mole fraction (GVIA iPLA2)	severity and progression of the disease (EAE) (EAE-induced SJL/J mice; delayed treatment from day 11 after immunization, 2 weeks, i.p., vs vehicle)	maximum clinical disability score (EAE-induced SJL/J mice; treatment before onset of symptoms, daily for 3 weeks from day 6, course until day 40, 5-point scale)
O=C(CCCCCCc1ccccc1)C(F)(F)C(F)(F)F [FKGK13, 1,1,1,2,2-Pentafluoro-9-phenyl-3-nonanone]	75 ± 10%	65 ± 12%	98 ± 4%						
O=C(CCc1ccc(OCc2ccccc2)cc1)C(F)(F)F [FKGK5, 1,1,1-Trifluoro-4-(4-benzyloxy-phenyl)-2-butanone]	49 ± 12%	88 ± 1%	71 ± 14%	71 to 72 °C					
O=C(CCCCCc1ccccc1)C(F)(F)C(F)(F)F [FKGK12, 1,1,1,2,2-Pentafluoro-8-phenyl-3-octanone]	46 ± 8%	56 ± 4%	98 ± 5%						
CCCCCCCCCCCCCCC(F)C(=O)C(F)(F)F (stereo not drawn) [FKGK8, 1,1,1,3-Tetrafluoro-2-heptadecanone]	86 ± 10%	94 ± 2%	93 ± 4%						
O=C(C(F)(F)F)C(F)(F)CCCc1ccccc1 [FKGK7, 1,1,1,3,3-Pentafluoro-6-phenyl-hexan-2-one]					59 ± 12%	27 ± 3%	49 ± 12%		

Now from value to compound, other results behind:

Average percent inhibition GV sPLA2 (GV sPLA2)	Average percent inhibition GIVA cPLA2 (human GIVA cPLA2)	Average percent inhibition GVIA iPLA2 (GVIA iPLA2)	melting point	inhibition at 0.091 mole fraction (GV sPLA2; n = 3, read-out: Average percent inhibition GV sPLA2)	inhibition at 0.091 mole fraction (human GIVA cPLA2; n = 3, read-out: Average percent inhibition GIVA cPLA2)	inhibition at 0.091 mole fraction (GVIA iPLA2)	SMILES	severity and progression of the disease (EAE) (EAE-induced SJL/J mice; delayed treatment from day 11 after immunization, 2 weeks, i.p., vs vehicle)	maximum clinical disability score (EAE-induced SJL/J mice; treatment before onset of symptoms, daily for 3 weeks from day 6, course until day 40, 5-point scale)
86 ± 4%	73 ± 4%	95 ± 5%					CCCCCCOc1ccc(CCC(=O)C(F)(F)C(F)(F)F)cc1 [FKGK14, 1,1,1,2,2-Pentafluoro-5-(4-hexyloxy-phenyl)-3-pentanone]		
86 ± 2%	92 ± 3%	91 ± 4%					CCCCCCOc1ccc(CCCCC(=O)C(F)(F)F)cc1 [FKGK2, 1,1,1-Trifluoro-6-(4hexyloxy-phenyl)-2-hexanone]	did not show any significant improvement	around 0.5 grade
82 ± 8%	91 ± 2%	85 ± 4%					CCCCCCOc1ccc(CCC(=O)C(F)(F)F)cc1 [FKGK1, 1,1,1-Trifluoro-4-(4-hexyloxy-phenyl)-2-butanone]		
80 ± 6%	96 ± 2%	94 ± 8%					CCCCCCCCCCOc1ccc(CCC(=O)C(F)(F)F)cc1 [FKGK3, 1,1,1-Trifluoro-4-(4-decyloxy-phenyl)-2-butanone]		
84 ± 7%	95 ± 2%					94 ± 8%	CCCCCCCCCCOc1ccc(CCCCC(=O)C(F)(F)F)cc1 [FKGK4, 1,1,1-Trifluoro-6-(4-decyloxy-phenyl)-2-hexanone]		
